Reference: patent US20200129531A1, “USE OF WITHANIA SOMNIFERA EXTRACT TO PROTECT AGAINST AIR POLLUTION RELATED DISEASES” (DSM IP Assets B.V., priority 2017, published 2020)

Columns and labels:
[1] = tested on: Nrf2; test: Luciferase reporter assay using H411E-ARE8L cells (Nrf2 activation); conditions: Conc. final 22.73 μg/ml
Method: Luciferase Reporter Assay Using H411E-ARE8L Cells:
The medium for H411E-ARE8L cells was Dulbecco's Modified Eagle Medium (DMEM) high glucose containing heat inactivated 10% fetal bovine Serum (FBS). The media was exchanged every two to three-days. The DMEM assay medium used charcoal treated FBS (DMEMct). The transactivation assay was performed in 96 well plates. The plates were seeded with approximately 40′000 cells per well in 100 μl DMEMct and incubated over night at 37° C. Then the test compounds were diluted in DMEDct and given to the cells as described below. The cells were incubated for at least further 16 h at 37° C. and 5% CO2. Cells were equilibrated to room temperature. Lysis of the cells was done by adding 100 μL lysis solution, Steady-Glo© luciferase buffer according to the manufacturer (Promega) containing 0.5 mM DTT per well and incubated for 10 min at room temperature with gentle shaking. The luminescence was measured within 2 hours after incubation on a luminometer (Mithras, Berthold Technologies).
The negative control were cells in 0.5% DMSO.
All extracts, fractions and pure compounds were tested for concentrations that induce toxicity. Non-toxic concentrations were then selected for treating cells as describes in the methods section.

[2] = tested on: IL-6; test: IL-6 secretion of A549 cells treated with Diesel Particulate Matter; format: cell-based, human; conditions: for effect on PM-induced IL-6 secretion (in words): A549; for IL-6 / IL-6 % of PM + DMSO: Table 5, A549, 24 h
Text: (§1) The human bronchial epithelial cell line BEAS-2B was from ATCC (American Type Culture Collection, Manassas, Va.) and cultured in Bronchial Epithelial cell Growth Medium (BEGM, Lonza, Wakersville, Md.) in CellBIND® surface plastic flasks (Corning Inc., Corning, N.Y.). The adenocarcinomic human alveolar basal epithelial A549 cell line was obtained from ATCC and cultured in Kaighn's Modification of Ham's F-12 Medium (F-12K medium) (Life Technologies, USA), supplemented with 10% FBS (Sigma, Saint-Louis, Mo.). These cells were cultured at 37° C. in a humidified atmosphere containing 5% CO2.
(§2) BEAS-2B cells were seeded in 12-well CellBIND® surface culture plates (Corning Inc.) at 3 to 4×10^5 cells per well. A549 cells were seeded in 12-well plates at 2×10^5 cells per well.
(§3) Diesel Particulate Matter (Standard Reference Material SRM 1650b, National Institute of Standards & Technology, NIST, Gaithersburg, Md.) at 80 mg/ml DMSO (100%) were sonicated for 5 min and thereafter diluted 400 fold in medium. This dilution was twofold further diluted for the assay.
(§4) After 24 h, cells were treated with the diluted Diesel Particulate Matter at 100 μg/ml and in the presence of different concentrations of Withania somnifera extracts, other plant extracts, fractions and compounds as indicated. The final DSMO concentrations were 0.175%.
(§5) Untreated cells or cells treated with 0.175% DMSO were used as controls. After 24 h, cell supernatants were collected.
(§6) The concentrations of IL-6 and IL-8 in the supernatants were determined by Luminex kits (BIO-RAD Laboratories, Hercules, Calif.) and used in the LiquiChip Workstation IS 200 (Qiagen, Hilden, Germany). The data were evaluated with the LiquiChip Analyser software (Qiagen).

[3] = tested on: IL-8; test: IL-8 secretion of A549 cells treated with Diesel Particulate Matter; format: cell-based, human; conditions: for effect on IL-8 secretion (in words): A549, PM-induced; for IL-8 / IL-8 % of PM + DMSO: Table 7, A549, 24 h
Text: as §1, §2, §3, §4, §5, §6

[4] = tested on: PGE2; test: PGE2 secretion of BEAS-2B cells treated with Diesel Particulate Matter; format: cell-based, human; conditions: for effect on PGE2 secretion compared to PM with DMSO (in words): PM-treated BEAS-2B; for PGE2 / PGE2 % of PM + DMSO: Table 10, BEAS-2B, 24 h
Text: as §1, §2, §3, §4, §5
Secreted PGE2 was determined by Enzyme Immuno Assay (EIA) (Cayman Chemicals, Ann Harbor, […].).

[5] = tested on: IL-6; test: IL-6 secretion of BEAS-2B cells treated with Diesel Particulate Matter; format: cell-based, human; conditions: 24 h
Text: as §1, §2, §3, §4, §5, §6

[6] = tested on: MCP-1; test: MCP-1 secretion of A549 cells treated with Diesel Particulate Matter; format: cell-based, human; conditions: for effect on PM-induced MCP-1 secretion (in words): A549; for MCP-1 / MCP-1 % of PM + DMSO: Table 9, A549, 24 h
Text: The human bronchial epithelial cell line BEAS-2B was from ATCC (American Type Culture Collection, Manassas, Va.) and cultured in Bronchial Epithelial cell Growth Medium (BEGM, Lonza, Wakersville, Md.) in CellBIND® surface plastic flasks (Corning Inc., Corning, N.Y.). The adenocarcinomic human alveolar basal epithelial A549 cell line was obtained from ATCC and cultured in Kaighn's Modification of Ham's F-12 Medium (F-12K medium) (Life Technologies, USA), supplemented with 10% FBS (Sigma, Saint-Louis, Mo.). These cells were cultured at 37° C. in a humidified atmosphere containing 5% CO2. BEAS-2B cells were seeded in 12-well CellBIND® surface culture plates (Corning Inc.) at 3 to 4×10^5 cells per well. A549 cells were seeded in 12-well plates at 2×10^5 cells per well. […] This dilution was twofold further diluted for the assay. After 24 h, cells were treated with the diluted Diesel Particulate Matter at 100 μg/ml and in the presence of different concentrations of Withania somnifera extracts, other plant extracts, fractions and compounds as indicated. The final DSMO concentrations were 0.175%. Untreated cells or cells treated with 0.175% DMSO were used as controls. After 24 h, cell supernatants were collected.

[7] = Table 3, 10 μg/ml + PM 100 μg/ml
[8] = Table 3, 5 μg/ml + PM 100 μg/ml

Compound: 12-deoxywithastramonolide
- Nrf-2 activity, Average [1]: 33869 relative units of luciferase fluorescence
- Nrf-2 activity, Normalized data ([1]; R-sulforaphane set to 1.0, DMSO 0): 1.1701
- effect on PM-induced IL-6 secretion (in words) [2]: decrease
- IL-6 ([2]; 10 μg/ml + PM 100 μg/ml): 9.5 pg/mL
- IL-6 % of PM + DMSO ([2]; 10 μg/ml + PM 100 μg/ml): 75%
- effect on IL-8 secretion (in words) [3]: significant inhibition
- IL-8 ([3]; 10 μg/ml + PM 100 μg/ml): 208.3 pg/mL
- IL-8 % of PM + DMSO ([3]; 10 μg/ml + PM 100 μg/ml): 69%
- effect on PGE2 secretion compared to PM with DMSO (in words) [4]: significant decrease
- PGE2 ([4]; 10 μg/ml + PM 100 μg/ml): 28.3 pg/mL
- PGE2 % of PM + DMSO ([4]; 10 μg/ml + PM 100 μg/ml): 74%
- IL-6 [5, 7]: 51.9 pg/mL
- IL-6 % of PM + DMSO [5, 7]: 207%
- effect on PM-induced MCP-1 secretion (in words) [6]: significant decrease
- MCP-1 ([6]; 10 μg/ml + PM 100 μg/ml): 646.3 pg/mL
- MCP-1 % of PM + DMSO ([6]; 10 μg/ml + PM 100 μg/ml): 74%

Compound: CO[C@H]1CC(=O)[C@]2(C)[C@H]3CC[C@]4(C)[C@@H]([C@H](C)[C@H]5CC(C)=C(CO)C(=O)O5)CC[C@H]4[C@@H]3C[C@H]3O[C@]32[C@H]1O [Quresimine A, quresimine A]
- effect on PM-induced IL-6 secretion (in words) [2]: decrease
- IL-6 ([2]; 5 μg/ml + PM 100 μg/ml): 9.5 pg/mL
- IL-6 % of PM + DMSO ([2]; 5 μg/ml + PM 100 μg/ml): 75%
- effect on IL-8 secretion (in words) [3]: significant inhibition
- IL-8 ([3]; 5 μg/ml + PM 100 μg/ml): 242 pg/mL
- IL-8 % of PM + DMSO ([3]; 5 μg/ml + PM 100 μg/ml): 80%
- effect on PGE2 secretion compared to PM with DMSO (in words) [4]: borderline
- PGE2 ([4]; 5 μg/ml + PM 100 μg/ml): 33.2 pg/mL
- PGE2 % of PM + DMSO ([4]; 5 μg/ml + PM 100 μg/ml): 87%
- IL-6 [5, 8]: 23.5 pg/mL
- IL-6 % of PM + DMSO [5, 8]: 94%
- effect on PM-induced MCP-1 secretion (in words) [6]: low, but non-significant decrease
- MCP-1 ([6]; 5 μg/ml + PM 100 μg/ml): 796.7 pg/mL
- MCP-1 % of PM + DMSO ([6]; 5 μg/ml + PM 100 μg/ml): 92%
